Data reported in PubChem BioAssay (NCI).
“And” between values parts separate entries of the source, which are not always exact repeats. Equal entries are not always repeated.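 The compound was tested at five concentrations on cells cultured in 96-well plates, with a 48-hour exposure period. The concentration for 50% growth inhibition is given as GI50. Definition used: TGI = concentration required for complete inhibition of growth.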

Assays:
Assay in all cases: inhibition of tumour cell growth, NCI panel, 48 h
[1] = system: 786-0 renal
[2] = system: HL-60(TB) leukemia
[3] = system: HOP-62 NSCLC
[4] = system: KM12 colon
[5] = system: MALME-3M melanoma
[6] = system: MDA-MB-435
[7] = system: NCI-H460 lung
[8] = system: NCI-H522 lung
[9] = system: SK-MEL-2 melanoma
[10] = system: SNB-19 CNS

| SMILES | TGI [1] | TGI [2] | TGI [3] [µM] | TGI [4] | TGI [5] [µM] | TGI [6] [µM] | TGI [7] [µM] | TGI [8] [µM] | TGI [9] [µM] | TGI [10] | GI50 [1] | GI50 [2] | GI50 [3] | GI50 [4] | GI50 [5] | GI50 [6] | GI50 [7] | GI50 [8] | GI50 [9] | GI50 [10] |
| --- | --- | --- | --- | --- | --- | --- | --- | --- | --- | --- | --- | --- | --- | --- | --- | --- | --- | --- | --- | --- |
| NC(=S)N/N=C/c1ccc(N)cn1 | > 10 µM | 5.44 µM | > 10 | > 10 µM | > 10 | > 10 | > 10 | > 10 | > 10 | > 10 µM |  |  |  |  |  |  |  |  |  |  |
| CC[C@@H](C(=O)[C@H](C)[C@H](O)[C@@H](C)[C@H]1O[C@H]([C@@H](CC)C(=O)O)CC[C@H]1C)C1O[C@]2(C=C[C@@H](O)[C@]3(CC[C@@](C)([C@H]4CC[C@](O)(CC)[C@H](C)O4)O3)O2)[C@H](C)C[C@@H]1C (some centres undefined) | 21.2 µM | 0.506 µM | 21.6 | 12.9 µM | 1.35 | 2.56 | 10.3 | 2.51 | 4.5 | 4.25 µM | 1.26 µM | 0.06 µM | 0.532 µM | 0.723 µM | 0.241 µM | 1.08 µM | 0.4 µM | 0.0961 µM | 1.27 µM | 0.204 µM |
| C[N+](C)(CCCCCC[N+](C)(C)CCCN1C(=O)c2cc3ccccc3cc2C1=O)CCCN1C(=O)c2cc3ccccc3cc2C1=O | > 37.5 µM | > 37.5 µM | > 37.5 | > 37.5 µM | > 37.5 | > 37.5 | > 37.5 | > 37.5 | > 37.5 | > 37.5 µM | > 37.5 µM | > 37.5 µM | > 37.5 µM | > 37.5 µM | > 37.5 µM | > 37.5 µM | > 37.5 µM | > 37.5 µM | > 37.5 µM | > 37.5 µM |
| c1cc(CSSCc2ccncc2)ccn1 | > 100 µM | 42.4 µM | > 100 | > 100 µM | > 100 | > 68.3 | > 84.9 | 60.2 | 82.1 | > 100 µM |  |  |  |  |  |  |  |  |  |  |
| COC(C(=O)C(O)C(C)O)C1Cc2cc3cc(OC4CC(OC5CC(O)C(O)C(C)O5)C(O)C(C)O4)c(C)c(O)c3c(O)c2C(=O)C1OC1CC(OC2CC(O)C(OC3CC(C)(O)C(O)C(C)O3)C(C)O2)C(O)C(C)O1 (centres undefined) | 112000 ng/mL and 64700 ng/mL | 188 ng/mL |  | 42.8 ng/mL and 72.3 ng/mL |  |  |  |  |  | > 150000 ng/mL | 11.2 ng/mL and 15.2 ng/mL | 2.27 ng/mL | 11.2 ng/mL and 0.0327 ng/mL | 11.2 ng/mL and 0.667 ng/mL | 11.2 ng/mL and 0.642 ng/mL | 12.1 ng/mL and 339 ng/mL | 11.2 ng/mL and 0.613 ng/mL | 11.2 ng/mL and 0.596 ng/mL | 11.2 ng/mL and 1.5 ng/mL | 40.2 ng/mL |
| COc1ccc2c(Cc3c4ccccc4cc4ccccc34)cncc2c1O | 23.4 µM | 8.36 µM | 22.4 | 8.69 µM | 55 | 0.622 | 3.94 | 21.2 | 17.5 | > 41.6 µM |  |  |  |  |  |  |  |  |  |  |
| CCCCCCCCCCC/C=C\C[C@H](O)C/C=C1/C(=O)C=C[C@@H]1C/C=C\CCCC(=O)OC | 3.98 µM | 2.68 µM | 3.51 | 2.45 µM | 2.41 | 1.8 | 3.91 | 2.36 | 5.67 | 4.58 µM | 1.03 µM | 0.835 µM | 1.01 µM | 0.852 µM | 0.803 µM | 0.71 µM | 1.11 µM | 0.753 µM | 1.46 µM | 1.24 µM |
| Nc1ccccc1NC(=O)c1ccc(CN2CCC/C(=C\c3ccccn3)C2=O)cc1 | 30.2 µM | 6.48 µM | > 100 | > 100 µM | > 100 | 1.77 | > 100 | 3.76 | 11.8 | > 100 µM | 2.71 µM | 0.467 µM | 2.5 µM | 1.53 µM | 1.01 µM | 0.357 µM | 1.65 µM | 0.51 µM | 1.57 µM | 3.16 µM |
| CCC(CCC(C)C1CCC2C3CC=C4CC(OC5OC(CO)C(O)C(O)C5O)CCC4(C)C3CCC12C)C(C)C (centres undefined) | > 100 µM | > 100 µM | > 100 | > 100 µM | > 100 | > 100 | > 100 | > 100 | > 100 | > 100 µM |  |  |  |  |  |  |  |  |  |  |
| COc1cccc(-n2cc(-c3nc(Nc4cc(C)[nH]n4)c4ccccc4n3)nn2)c1 | 9.85 µM | 14.5 µM | 8.4 | 7.39 µM | 13.7 | 9.18 | 11.3 | 10.2 | 9.27 | 15.7 µM | 2.89 µM | 2.85 µM | 1.64 µM | 1.69 µM | 5.31 µM | 2.24 µM | 2.65 µM | 3.38 µM | 1.71 µM | 6.61 µM |
| Cn1c2ccccc2c(=O)c2c(O)cc3c(c21)CC(C1(C)CO1)O3 (centres undefined) | 5.06 µM | 2.32 µM | 11.3 | 6.52 µM | 28.4 | 3.07 | 13.6 | 9.79 | 2.32 | 26.9 µM |  |  |  |  |  |  |  |  |  |  |
